Measurements published in patent US11834489B2 (priority 2017, dated 2023).

Assays:
[1] = biological target: Cy3B*/Cy7*-labelled β2Δ6-N148C/L266C with Gs(GDP) (Homo sapiens, UniProt P07550, C265A/C327S/C341L/C378A/C406A/C77V/L266C/N148C); assay type: biochemical; conditions: transition rate from high- to low-FRET states; saturating ligand, 30 μM GDP, Gs titration
β2AR-Gs complex = β2AR-Gs complex (Homo sapiens, UniProt P07550, C265A/C327S/C341L/C378A/C406A/C77V/L266C/N148C); assay type: biochemical; conditions: normalized to adrenaline
[2] = biological target: labelled β2AR and biotinylated Gs (Homo sapiens, UniProt P07550, C265A/C327S/C341L/C378A/C406A/C77V/L266C/N148C); assay type: biochemical; conditions: mean ± s.e.m.
β2AR = conditions: compared to salbutamol, reference 27; cited from earlier work

khigh→low [1]: 0.7 s⁻¹
η2 (β2AR-Gs complex; apparent EC50 for GDP binding): 1.0
η1 (β2AR-Gs complex; product of apparent kon and khigh→low): 1.0
Lifetime, Biotin-Gs-immobilized, +GDP ([2]; after addition of 30 μM GDP): 11.8 ± 1.2 s
Lifetime, Biotin-Gs-immobilized, +GTP ([2]; after addition of 100 μM GTP): 6.4 ± 0.1 s
Lifetime, M1-immobilized ([2]; biotin-M1-Fab-immobilized β2AR in the absence of Gs): 13.2 ± 3.4 min
Lifetime, Biotin-Gs-immobilized, GNP-free ([2]; nucleotide-free state): 11.2 ± 5.1 min
Structure (SMILES): CNCC(O)c1ccc(O)c(O)c1 (centres unmarked) [ADR, adrenaline]
extent of [3H]GDP release (β2AR): greater extent of [^3H]GDP release
